# Measured values as given in patent publication US8158628B2, “Sulfonylated 1,2,3,4-tetrahydropyrrolo[1,2-a]pyrazine compounds and their use as pharmaceuticals” (Gruenenthal GmbH, priority 2009, dated 2012).
# Molecular target: T1, B1R of the rat (Rattus norvegicus, UniProt P97583)
# T1 construct: expressed in transfected cells; host or cells: CHO K1 cells (Chinese hamster ovary), stably transfected
# T1 sequence (P97583 1-337): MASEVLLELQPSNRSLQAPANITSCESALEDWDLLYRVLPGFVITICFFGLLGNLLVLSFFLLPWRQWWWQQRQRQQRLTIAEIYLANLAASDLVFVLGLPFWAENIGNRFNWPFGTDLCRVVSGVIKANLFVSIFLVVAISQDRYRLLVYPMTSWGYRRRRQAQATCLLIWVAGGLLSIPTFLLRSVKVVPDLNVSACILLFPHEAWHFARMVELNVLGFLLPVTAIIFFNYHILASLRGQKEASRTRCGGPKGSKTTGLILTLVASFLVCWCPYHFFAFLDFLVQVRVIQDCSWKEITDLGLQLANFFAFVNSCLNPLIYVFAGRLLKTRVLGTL
# Assay: FLIPR Ca2+ functional assay, B1R antagonism, rat B1R in CHO K1 cells
# Type: cell-based
# Conditions: test substance 10 μM; rB1R CHO K1 cells; agonist Des-Arg9 bradykinin at EC80; % of maximum achievable inhibition
# How it was run: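 Stably transfected CHO K1 cells loaded with Fluo-4; Ca2+ fluorescence read on FLIPR (ex 488/em 540 nm). Compound preincubated 10-20 min, then agonist at EC80: Lys-Des-Arg9 bradykinin (human) or Des-Arg9 bradykinin (rat). % inhibition vs maximal inhibition; IC50 from concentration series, n=2-3, N>=2.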
row,inhibition at 10 µM [%],SMILES
1,14.1,"O=C(CC1c2cccn2CCN1S(=O)(=O)c1ccccc1)N1CCN(c2ccccc2F)CC1 (centres unmarked) [Example 172, 2-[2-(Benzenesulfonyl)-1,2,3,4-tetrahydro-pyrrolo[1,2-a]pyrazin-1-yl]-1-[4-(2-fluorophenyl)-piperazin-1-yl]-ethanone]"
2,-1.9,"CN1CCN(C2CCN(C(=O)CC3c4cccn4CCN3S(=O)(=O)c3ccccc3)CC2)CC1 (centres unmarked) [Example 177, 2-[2-(Benzenesulfonyl)-1,2,3,4-tetrahydro-pyrrolo[1,2-a]pyrazin-1-yl]-1-[4-(4-methyl-piperazin-1-yl)-piperidin-1-yl]-ethanone]"
3,37.5,"O=C(CC1c2cccn2CCN1S(=O)(=O)c1ccccc1)NCC1CCN(Cc2ccccc2)C1 (centres unmarked) [Example 182, 2-[2-(Benzenesulfonyl)-1,2,3,4-tetrahydro-pyrrolo[1,2-a]pyrazin-1-yl]-N-[(1-benzyl-pyrrolidin-3-yl)-methyl]-acetamide]"
4,0.145,"O=C(CC1c2cccn2CCN1S(=O)(=O)c1ccccc1)N1CCC(O)(c2cccnc2)CC1 (centres unmarked) [Example 167, 2-[2-(Benzenesulfonyl)-1,2,3,4-tetrahydro-pyrrolo[1,2-a]pyrazin-1-yl]-1-(4-hydroxy-4-pyridin-3-yl-piperidin-1-yl)-ethanone]"
5,69.5,"Cc1cccc(Cl)c1S(=O)(=O)N1CCn2cccc2C1CC(=O)NC1CCN(Cc2ccccc2)C1 (centres unmarked) [Example 157, N-(1-Benzyl-pyrrolidin-3-yl)-2-[2-[(2-chloro-6-methyl-phenyl)sulfonyl]-1,2,3,4-tetrahydro-pyrrolo[1,2-a]pyrazin-1-yl]-acetamide]"

# Further lines, the compound ahead of its results:
row,SMILES,inhibition at 10 µM [%]
1,"COc1cc(C)c(S(=O)(=O)N2CCn3cccc3C2CC(=O)N2CCN(c3ccc(C(F)(F)F)cn3)CC2)c(C)c1 (centres unmarked) [Example 152, 2-[2-[(4-Methoxy-2,6-dimethyl-phenyl)sulfonyl]-1,2,3,4-tetrahydro-pyrrolo[1,2-a]pyrazin-1-yl]-1-[4-[5-(trifluoromethyl)-pyridin-2-yl]-piperazin-1-yl]-ethanone]",50.9
2,"COc1cc(C)c(S(=O)(=O)N2CCn3cccc3C2CC(=O)N2CCCN(c3ncccc3C#N)CC2)c(C)c1 (centres unmarked) [Example 150, 2-[4-[2-[2-[(4-Methoxy-2,6-dimethyl-phenyl)sulfonyl]-1,2,3,4-tetrahydro-pyrrolo[1,2-a]pyrazin-1-yl]-acetyl]-[1,4]diazepan-1-yl]-pyridine-3-carbonitrile]",50.3
3,"COc1cc(C)c(S(=O)(=O)N2CCn3cccc3C2CC(=O)N2CCN(CCO)CC2)c(C)c1 (centres unmarked) [Example 258, 1-[4-(2-Hydroxy-ethyl)-piperazin-1-yl]-2-[2-[(4-methoxy-2,6-dimethyl-phenyl)sulfonyl]-1,2,3,4-tetrahydro-pyrrolo[1,2-a]pyrazin-1-yl]-ethanone]",9.05
4,"COc1cc(C)c(S(=O)(=O)N2CCn3cccc3C2CC(=O)N2CCCCC2Cc2ccccn2)c(C)c1 (centres unmarked) [Example 244, 2-[2-[(4-Methoxy-2,6-dimethyl-phenyl)sulfonyl]-1,2,3,4-tetrahydro-pyrrolo[1,2-a]pyrazin-1-yl]-1-[2-(pyridin-2-yl-methyl)-piperidin-1-yl]-ethanone]",-37.6
5,"COc1cc(C)c(S(=O)(=O)N2CCn3cccc3C2CC(=O)N2CCC(c3nc4cc(C)ccc4[nH]3)CC2)c(C)c1 (centres unmarked) [Example 148, 2-[2-[(4-Methoxy-2,6-dimethyl-phenyl)sulfonyl]-1,2,3,4-tetrahydro-pyrrolo[1,2-a]pyrazin-1-yl]-1-[4-(5-methyl-1H-benzoimidazol-2-yl)-piperidin-1-yl]-ethanone]",70.4
6,"COc1cc(C)c(S(=O)(=O)N2CCn3cccc3C2CC(=O)N2CCN(Cc3ccccc3F)CC2)c(C)c1 (centres unmarked) [Example 243, 1-[4-[(2-Fluorophenyl)-methyl]-piperazin-1-yl]-2-[2-[(4-methoxy-2,6-dimethyl-phenyl)sulfonyl]-1,2,3,4-tetrahydro-pyrrolo[1,2-a]pyrazin-1-yl]-ethanone]",29.4
